PMC9366597 (RSC Advances, 2022)
Like-named read-outs stand apart in the source and are kept apart here.

Legend:
[1] = In vivo acute toxicity study; details: doses ranging from 50 to 2000 mg kg^−1 body weight
[2] = target: T1, hMAO-B (Homo sapiens, UniProt P27338); assay: MAO-B inhibition, fluorometric method; assay type: biochemical; details: for SI (IC50 hMAO-A/IC50 hMAO-B): selectivity index toward hMAO-B
T1 sequence (P27338 1-520): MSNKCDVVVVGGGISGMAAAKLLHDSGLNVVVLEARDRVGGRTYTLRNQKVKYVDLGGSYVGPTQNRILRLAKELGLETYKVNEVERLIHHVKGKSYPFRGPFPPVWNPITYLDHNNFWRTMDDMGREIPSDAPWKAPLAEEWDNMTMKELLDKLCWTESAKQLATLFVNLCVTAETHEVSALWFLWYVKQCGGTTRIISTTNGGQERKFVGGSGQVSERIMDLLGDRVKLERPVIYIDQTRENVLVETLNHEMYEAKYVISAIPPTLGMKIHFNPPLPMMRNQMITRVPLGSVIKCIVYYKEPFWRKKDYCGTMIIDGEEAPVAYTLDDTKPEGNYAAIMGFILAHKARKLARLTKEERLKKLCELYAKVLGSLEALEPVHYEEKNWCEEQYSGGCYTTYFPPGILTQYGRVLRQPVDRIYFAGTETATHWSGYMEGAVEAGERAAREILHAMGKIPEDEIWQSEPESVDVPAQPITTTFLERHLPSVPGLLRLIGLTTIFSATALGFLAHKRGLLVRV

[3] = test system: neuroblastoma SH-SY5Y cells; assay: MTT assay for neurotoxicity; assay type: cell-based; details: 1, 10, 20, 40 and 80 μM, incubation for 48 hours
[4] = target: T2, hMAO-A (Homo sapiens, UniProt P21397); assay: MAO-A inhibition, fluorometric method; assay type: biochemical
T2 sequence (P21397 1-527): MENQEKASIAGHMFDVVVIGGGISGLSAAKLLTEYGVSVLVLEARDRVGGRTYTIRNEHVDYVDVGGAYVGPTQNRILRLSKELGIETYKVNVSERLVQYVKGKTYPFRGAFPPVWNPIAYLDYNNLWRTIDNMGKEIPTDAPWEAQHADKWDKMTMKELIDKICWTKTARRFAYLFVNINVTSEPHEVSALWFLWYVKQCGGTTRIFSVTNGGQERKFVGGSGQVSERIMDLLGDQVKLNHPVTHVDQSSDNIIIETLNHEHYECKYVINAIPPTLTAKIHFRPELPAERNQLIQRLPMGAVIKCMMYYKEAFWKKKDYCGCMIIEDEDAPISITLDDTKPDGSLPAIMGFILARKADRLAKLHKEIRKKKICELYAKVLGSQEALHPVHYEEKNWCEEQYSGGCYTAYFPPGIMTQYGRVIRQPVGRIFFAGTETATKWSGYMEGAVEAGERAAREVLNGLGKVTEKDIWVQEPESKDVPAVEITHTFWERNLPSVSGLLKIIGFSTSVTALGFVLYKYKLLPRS

[5] = target: eqBChE (Equus caballus, UniProt P81908); assay: BChE inhibition, modified Ellman's method; assay type: biochemical, Equine
[6] = target: T3, COX-2 (Homo sapiens, UniProt P35354); assay: biochemical; assay type: biochemical
T3 sequence (P35354 18-604): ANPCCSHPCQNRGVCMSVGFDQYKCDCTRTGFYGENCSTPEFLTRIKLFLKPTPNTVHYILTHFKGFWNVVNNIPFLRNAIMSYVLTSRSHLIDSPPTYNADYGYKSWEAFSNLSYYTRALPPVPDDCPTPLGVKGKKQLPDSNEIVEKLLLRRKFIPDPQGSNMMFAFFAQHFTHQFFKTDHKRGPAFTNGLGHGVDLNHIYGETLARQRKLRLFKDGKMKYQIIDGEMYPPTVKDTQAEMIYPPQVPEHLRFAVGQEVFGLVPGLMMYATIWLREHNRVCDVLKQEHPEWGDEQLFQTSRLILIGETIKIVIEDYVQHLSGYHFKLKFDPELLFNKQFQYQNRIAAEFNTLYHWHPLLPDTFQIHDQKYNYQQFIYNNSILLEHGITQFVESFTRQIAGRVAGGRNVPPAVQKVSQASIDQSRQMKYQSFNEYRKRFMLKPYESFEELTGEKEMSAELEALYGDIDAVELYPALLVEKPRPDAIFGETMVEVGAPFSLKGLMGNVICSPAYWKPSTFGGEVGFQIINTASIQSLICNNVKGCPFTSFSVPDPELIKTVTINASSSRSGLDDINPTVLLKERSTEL

[7] = PAMPA-BBB permeation assay; details: for Papp at 20 h: PAMPA, pH 7.4; for Prediction (PAMPA-BBB) (CNS+, CNS−): class from Pe
[8] = target: eeAChE (Electrophorus electricus, UniProt O42275); assay: AChE inhibition, modified Ellman's method; assay type: biochemical, Electrophorous electricus; details: for SI (IC50 eqBChE/IC50 eeAChE): selectivity index toward eeAChE
[9] = target: T4, 5-LOX (Glycine max, UniProt P08170); assay: 5-LOX inhibition assay; assay type: biochemical, soybean
T4 sequence (P08170 1-839): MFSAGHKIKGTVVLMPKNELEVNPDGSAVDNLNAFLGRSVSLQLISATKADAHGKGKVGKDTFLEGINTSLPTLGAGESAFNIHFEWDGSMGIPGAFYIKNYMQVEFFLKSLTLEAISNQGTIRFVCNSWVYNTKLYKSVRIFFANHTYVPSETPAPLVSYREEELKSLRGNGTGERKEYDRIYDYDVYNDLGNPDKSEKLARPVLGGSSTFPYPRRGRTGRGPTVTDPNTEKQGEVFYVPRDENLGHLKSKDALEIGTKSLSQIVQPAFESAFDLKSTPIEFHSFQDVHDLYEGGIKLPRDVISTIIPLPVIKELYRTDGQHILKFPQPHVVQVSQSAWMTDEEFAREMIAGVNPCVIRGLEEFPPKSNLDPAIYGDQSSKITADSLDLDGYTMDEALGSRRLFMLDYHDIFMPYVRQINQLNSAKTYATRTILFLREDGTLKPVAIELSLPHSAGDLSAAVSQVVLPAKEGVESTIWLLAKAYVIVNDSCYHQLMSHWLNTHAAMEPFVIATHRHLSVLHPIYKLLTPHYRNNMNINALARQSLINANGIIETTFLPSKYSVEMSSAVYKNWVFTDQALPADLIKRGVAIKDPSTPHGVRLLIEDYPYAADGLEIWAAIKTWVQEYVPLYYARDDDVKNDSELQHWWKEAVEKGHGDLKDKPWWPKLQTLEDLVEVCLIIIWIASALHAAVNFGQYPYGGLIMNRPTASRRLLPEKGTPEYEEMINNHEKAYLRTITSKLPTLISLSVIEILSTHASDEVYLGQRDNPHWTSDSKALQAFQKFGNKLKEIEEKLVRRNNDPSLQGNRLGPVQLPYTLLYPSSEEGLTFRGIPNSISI

eeAChE, sequence (O42275 24-633): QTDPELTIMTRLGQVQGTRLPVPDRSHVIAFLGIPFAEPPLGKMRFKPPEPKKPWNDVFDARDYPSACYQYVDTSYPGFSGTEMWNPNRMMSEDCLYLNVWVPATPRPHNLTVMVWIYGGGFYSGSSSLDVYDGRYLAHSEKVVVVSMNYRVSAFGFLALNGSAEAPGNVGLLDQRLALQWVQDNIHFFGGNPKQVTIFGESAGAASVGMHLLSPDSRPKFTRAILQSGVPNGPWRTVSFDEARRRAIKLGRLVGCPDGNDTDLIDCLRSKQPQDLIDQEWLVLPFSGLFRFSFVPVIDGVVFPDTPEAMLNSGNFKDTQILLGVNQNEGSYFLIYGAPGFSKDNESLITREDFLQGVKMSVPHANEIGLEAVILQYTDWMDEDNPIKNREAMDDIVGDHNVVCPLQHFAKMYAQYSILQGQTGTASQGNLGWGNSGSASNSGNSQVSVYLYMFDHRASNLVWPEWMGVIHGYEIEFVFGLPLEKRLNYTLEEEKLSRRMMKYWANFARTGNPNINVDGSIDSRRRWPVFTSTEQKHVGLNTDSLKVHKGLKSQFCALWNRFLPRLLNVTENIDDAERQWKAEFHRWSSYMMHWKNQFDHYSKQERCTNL
eqBChE, sequence (P81908 whole entry): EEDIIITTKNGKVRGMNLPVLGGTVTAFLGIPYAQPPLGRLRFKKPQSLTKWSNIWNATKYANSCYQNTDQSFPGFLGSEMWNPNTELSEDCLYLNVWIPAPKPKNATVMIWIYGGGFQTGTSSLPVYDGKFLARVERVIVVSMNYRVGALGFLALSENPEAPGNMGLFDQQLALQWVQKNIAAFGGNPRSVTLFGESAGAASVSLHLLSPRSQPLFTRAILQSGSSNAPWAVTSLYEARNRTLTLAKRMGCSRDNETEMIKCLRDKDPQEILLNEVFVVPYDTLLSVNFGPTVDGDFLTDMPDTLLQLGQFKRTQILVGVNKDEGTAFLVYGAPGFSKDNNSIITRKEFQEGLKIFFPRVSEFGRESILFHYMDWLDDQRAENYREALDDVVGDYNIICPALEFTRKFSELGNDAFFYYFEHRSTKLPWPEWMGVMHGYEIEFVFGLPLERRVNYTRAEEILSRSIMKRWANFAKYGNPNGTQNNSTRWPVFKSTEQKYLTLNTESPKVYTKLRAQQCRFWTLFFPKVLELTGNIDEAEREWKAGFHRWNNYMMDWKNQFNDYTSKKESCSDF

NS(=O)(=O)c1ccc(N2N=C(c3ccc(NC(=O)Cc4ccccc4Nc4c(Cl)cccc4Cl)cc3)CC2c2ccc(Cl)cc2)cc1 (stereo not shown) [Compound 39, N-{4-[5-(4-chlorophenyl)-1-(4-sulfamoylphenyl)-4,5-dihydro-1H-pyrazol-3-yl]phenyl}-2-{2-[(2,6-dichlorophenyl)amino]phenyl}acetamide]
Acute toxicity outcome [1]: all animals were found alive
IC50 [2]: 0.01 ± 0.001 µM
SI (IC50 hMAO-A/IC50 hMAO-B) [2]: 61
Neurotoxicity (cell viability, MTT) [3]: no neurotoxicity
IC50 [4]: 0.61 ± 0.08 µM
IC50 [5]: 0.91 ± 0.16 µM
IC50 [6]: 0.6 ± 0.03 µM
Papp at 20 h [7]: 75.5 ± 1.4 nm/s
Prediction (PAMPA-BBB) (CNS+, CNS−) [7]: CNS+ (‘CNS+’ (prediction of high BBB permeation); Pe (10^−6 cm s^−1) > 4.39)
IC50 [8]: 0.03 ± 0.01 µM
SI (IC50 eqBChE/IC50 eeAChE) [8]: 30.33
IC50 [9]: 0.98 ± 0.01 µM

NS(=O)(=O)c1ccc(NCSc2nnc(Cc3ccccc3Nc3c(Cl)cccc3Cl)n2-c2ccc(Cl)c(Cl)c2)cc1 [Compound 15, 4-((5-(2-(2,6-dichlorophenylamino)benzyl)-4-(3,4-dichlorophenyl)-4H-1,2,4-triazol-3-ylthio)methylamino)benzenesulfonamide]
Acute toxicity outcome [1]: all animals were found alive
IC50 [2]: 0.89 ± 0.33 µM
SI (IC50 hMAO-A/IC50 hMAO-B) [2]: 1.3
Neurotoxicity (cell viability, MTT) [3]: low neurotoxicity
IC50 [4]: 1.21 ± 0.07 µM
IC50 [5]: 2.99 ± 0.33 µM
IC50 [6]: 0.16 ± 0.04 µM
Papp at 20 h [7]: 63.6 ± 3 nm/s
Prediction (PAMPA-BBB) (CNS+, CNS−) [7]: CNS+ (‘CNS+’ (prediction of high BBB permeation); Pe (10^−6 cm s^−1) > 4.39)
IC50 [8]: 0.11 ± 0.01 µM
SI (IC50 eqBChE/IC50 eeAChE) [8]: 27.2
IC50 [9]: 3.42 ± 0.21 µM

CCn1cc(C(=O)O)c(=O)c2cc(F)c(N3CCNC(C)C3)c(F)c21 (stereo not shown) [Lomefloxacin, reference compound]
Prediction (PAMPA-BBB) (CNS+, CNS−) [7]: CNS− (‘CNS−’ (prediction of low BBB permeation); Pe (10^−6 cm s^−1) < 1.78)

Sc1nnc(Cc2ccccc2Nc2c(Cl)cccc2Cl)n1-c1ccc(Cl)c(Cl)c1 [Compound 12, 5-(2-(2,6-dichlorophenylamino)benzyl)-4-(3,4 dichlorophenyl)-4H-1,2,4-triazole-3-thiol]
IC50 [2]: 13.1 ± 1.22 µM
SI (IC50 hMAO-A/IC50 hMAO-B) [2]: 0.8
IC50 [4]: 11.3 ± 1.01 µM
IC50 [5]: 56.4 ± 1.28 µM
IC50 [6]: 0.69 ± 0.13 µM
IC50 [8]: 2.58 ± 0.41 µM
SI (IC50 eqBChE/IC50 eeAChE) [8]: 21.8
IC50 [9]: 75.5 ± 1.57 µM

N-(2-((5-(4-(4aH-Phenothiazin-10(10aH)-yl)butylthio)-4-(3,4-dichlorophenyl)-4H-1,2,4-triazol-3-yl)methyl)phenyl)-2,6-dichlorobenzenamine [Compound 33]
Acute toxicity outcome [1]: all animals were found alive
IC50 ([2]; read-out: IC50 (μM) ± SEM hMAO-B): 0.13 ± 0.01 µM
SI (IC50 hMAO-A/IC50 hMAO-B) [2]: 65.7
Neurotoxicity (cell viability, MTT) [3]: no neurotoxicity
IC50 ([4]; read-out: IC50 (μM) ± SEM hMAO-A): 8.55 ± 0.26 µM
IC50 ([5]; read-out: IC50 (μM) ± SEM eqBChE): 5.89 ± 1 µM
IC50 ([6]; read-out: IC50 (μM) ± SEM COX-2, NA = no activity found in tested concentration): 23 ± 0.92 µM
Prediction (PAMPA-BBB) (CNS+, CNS−) [7]: CNS+ (‘CNS+’ (prediction of high BBB permeation); Pe (10^−6 cm s^−1) > 4.39)
Permeability (PAMPA-BBB) Pe(tested) ([7]; pH 7.4, 20 hours, room temperature): 9.05 ± 0.20 10^−6 cm s^−1
IC50 ([8]; read-out: IC50 (μM) ± SEM eeAChE): 0.05 µM
SI (IC50 eqBChE/IC50 eeAChE) [8]: 117.8
IC50 ([9]; read-out: IC50 (μM) ± SEM 5-LOX): 9.11 ± 0.08 µM

COc1ccc(C(=O)CC2CC(=O)N(CCCSc3nnc(Cc4ccccc4Nc4c(Cl)cccc4Cl)n3-c3ccc(Cl)c(Cl)c3)C2=O)cc1 (stereo not shown) [Compound 31, 1-(3-((4-(3,4-Dichlorophenyl)-5-(2-((2,6-dichlorophenyl)amino)benzyl)-4H-1,2,4-triazol-3-yl)thio)propyl)-3-(2-(4-methoxyphenyl)-2-oxoethyl)pyrrolidine-2,5-dione]
Acute toxicity outcome [1]: all animals were found alive
IC50 [2]: 0.024 ± 0.001 µM
SI (IC50 hMAO-A/IC50 hMAO-B) [2]: 193
IC50 [4]: 4.63 ± 0.31 µM
IC50 [5]: 48.1 ± 1.51 µM
IC50 [8]: 0.08 ± 0.01 µM
SI (IC50 eqBChE/IC50 eeAChE) [8]: 601.2
IC50 [9]: 51.3 ± 1.37 µM

O=C(CC1CC(=O)N(CCCSc2nnc(Cc3ccccc3Nc3c(Cl)cccc3Cl)n2-c2ccc(Cl)c(Cl)c2)C1=O)c1ccccc1 (stereo not shown) [Compound 32, 1-(3-((4-(3,4-Dichlorophenyl)-5-(2-((2,6-dichlorophenyl)amino)benzyl)-4H-1,2,4-triazol-3-yl)thio)propyl)-3-(2-oxo-2-phenylethyl)pyrrolidine-2,5-dione]
IC50 [2]: 0.106 ± 0.004 µM
SI (IC50 hMAO-A/IC50 hMAO-B) [2]: 61.1
IC50 [4]: 6.48 ± 0.39 µM
IC50 [5]: 3.39 ± 0.83 µM
IC50 [8]: 0.39 ± 0.08 µM
SI (IC50 eqBChE/IC50 eeAChE) [8]: 8.7
IC50 [9]: 48.3 ± 1.42 µM

Cc1nnc2n1-c1ccc(Cl)cc1C(c1ccccc1)=NC2 [Alprazolam, reference compound]
Prediction (PAMPA-BBB) (CNS+, CNS−) [7]: CNS+ (‘CNS+’ (prediction of high BBB permeation); Pe (10^−6 cm s^−1) > 4.39)
